Data from patent US6251914A, “Cycloalkyl substituted imidazoles” (SmithKline Beecham Corporation, priority 1999, dated 2001).
Where a name gives a salt, the structure may show the parent alone.

Molecular target: T1, CSBP2 (Homo sapiens, UniProt Q16539)
T1 construct: made in house; host or cells: yeast
Assay: CSBP Kinase Assay (32P transfer to EGFR-derived peptide T669)
Format: biochemical
Conditions: 170 uM ATP, 0.4 mM T669 peptide, 30° C., 10 min; read-out: positive inhibitory activity, IC50 in CSBP kinase assay
Protocol: This assay measures the CSBP-catalyzed transfer of ^32 P from […] to threonine residue in an epidermal growth factor receptor (EGFR)-derived peptide (T669) with the following sequence: […] (residues 661-681). (See Gallagher et al., "Regulation of Stress Induced Cytokine Production by Pyridinyl Imidazoles: Inhibition of CSPB Kinase", BioOrganic & Medicinal Chemistry, to be published 1996).
Kinase reactions (total volume 30 ul) contain: 25 mM Hepes buffer, pH 7.5; 10 mM MgCl2; 170 uM ATP^(1); 10 uM Na ortho vanadate; 0.4 mM T669 peptide; and 20-80 ng of yeast-expressed purified CSBP2 (see Lee et al., Nature 300, n(72), 739-746 (December 1994)). Compounds (5 ul from [6×] stock^(2)) are pre-incubated with the enzyme and peptide for 20 min. on ice prior to starting the reactions with 32P/MgATP. Reactions are incubated at 30° C. for 10 min. and stopped by adding 10 ul of 0.3 M phosphoric acid. 32P-labeled peptide is separated on phosphocellulose (Wattman, p81) filters by spotting 30 ul reaction mixture. Filters are washed 3 times with 75 mM phosphoric acid followed by 2 washes with H2 O, and counted for 32P.
^(2) Compounds are usually dissolved in DMSO and are diluted in 25 mM HEPES buffer to get final concentration of DMSO of 0.17%.

T1 sequence (Q16539 whole entry): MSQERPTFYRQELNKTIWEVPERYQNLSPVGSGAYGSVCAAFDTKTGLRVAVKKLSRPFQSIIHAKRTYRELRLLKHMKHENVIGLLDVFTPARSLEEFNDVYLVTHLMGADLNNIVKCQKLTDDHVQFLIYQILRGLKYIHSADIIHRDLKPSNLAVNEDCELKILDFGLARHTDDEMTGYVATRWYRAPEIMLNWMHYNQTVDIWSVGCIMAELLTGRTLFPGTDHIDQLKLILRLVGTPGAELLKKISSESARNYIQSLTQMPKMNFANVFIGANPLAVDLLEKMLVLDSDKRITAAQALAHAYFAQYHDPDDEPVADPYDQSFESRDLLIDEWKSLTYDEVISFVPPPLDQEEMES

| IC50 | SMILES |
| --- | --- |
| < 50 µM | COc1nccc(-c2c(-c3ccc(F)cc3)ncn2C2CCCC2)n1 [Example 15, 1-Cyclopentyl-4-(4-fluorophenyl)-5-(2-methoxypyrimidin-4-yl)imidazole] |
| < 50 µM | COc1nccc(-c2c(-c3ccc(F)cc3)ncn2C2CC2)n1 [Example 14, 1-Cyclopropyl-4-(fluorophenyl)-5-(2-methoxypyrimidin-4-yl)imidazole] |

Continued, molecule first:

| SMILES | IC50 |
| --- | --- |
| COc1nccc(-c2c(-c3ccc(F)cc3)ncn2C2CCCCC2)n1 [Example 12, 1-Cyclohexyl-4-(4-fluorophenyl)-5-(2-methoxypyrimidin-4-yl)imidazole] | < 50 µM |
| CCOc1nccc(-c2c(-c3ccc(F)cc3)ncn2[C@H]2CC[C@H](O)CC2)n1 [Example 9, trans-1-(4-Hydroxycyclohexyl)-4-(4-fluorophenyl)-5-[(2-ethoxy)pyrimidine-4-yl]imidazole] | < 50 µM |

Molecular target: T2, p38 (Homo sapiens, UniProt Q16539)
T2 construct: made in house; host or cells: yeast
T2 sequence (Q16539 whole entry): as above
Assay: CSBP Kinase Assay, minor variation (activated p38, T669 peptide, 96 well plate)
Format: biochemical
Conditions: 0.17 mM ATP, 0.67 mM T669 peptide, 24 nM p38, 37° C., 25 min; read-out: positive inhibitory activity, IC50 in kinase assay (minor variation)
Protocol: A minor variation of the above assay is shown below:
Reactions were carried in round bottom 96 well plate (from Corning) in a […]. Reactions contained (in final concentration): 25 mM Hepes, pH7.5; 8 mM MgCl2; 0.17 mM ATP (the Km[ATP] of p38 (see Lee et al., Nature 300, n72 pg 639-746 (December 1994)); 2.5 uCi of [g-32P]ATP; 0.2 mM sodium orthovanadate; 1 mM DTT; 0.1% BSA; 10% glycerol; 0.67 mM T669 peptide; and 24 nM of yeast-expressed, activated and purified p38. Reactions were initiated by the addition of [gamma-32P]Mg/ATP, and incubated for 25 min. at 37° C. Inhibitors (dissolved in DMSO) were incubated with the reaction mixture on ice for 30 minutes prior to adding the 32P-ATP. Final DMSO concentration was 0.16%. Reactions were terminated by adding 10 ul of 0.3 M phosphoric acid, and phosphorylated peptide was isolated from the reactions by capturing it on p81 phosphocellulose filters. Filters were washed with 75 mM phosphoric acids, and incorporated 32P was quantified using beta scintillation counter. Under these conditions, the specific activity of p38 was 400-450 pmol/pmol enzyme, and the activity was linear for up to 2 hr of incubation. The kinase activity values were obtained after subtracting values generated in the absence of substrate which were 10-15% of total values.

| IC50 | SMILES |
| --- | --- |
| < 50 µM | COc1nccc(-c2c(-c3ccc(F)cc3)ncn2C2CCCCCC2)n1 [Example 16, 1-Cycloheptyl-4-(4-fluorophenyl)-5-(2-methoxypyrimidin-4-yl)imidazole] |
| < 50 µM | COc1nccc(-c2c(-c3ccc(F)cc3)ncn2[C@H]2CC[C@H](OCCN(C)C)CC2)n1 [Example 18, trans-4-(4-Fuorophenyl)-1-[4-(2-(N,N-dimethylamino)ethoxy)cyclohexyl]-5-[(2-methoxy)pyrimidine-4-yl]-imidazole hydrochloride] |
| < 50 µM | COc1nccc(-c2c(-c3ccc(F)cc3)ncn2[C@H]2CC[C@H](OCSC)CC2)n1 [Example 17, trans-4-(4-Fluorophenyl)-5-(2-methoxypyrimidin-4-yl)-1-[4-(methylthiomethoxy)cyclohexyl]imidazole] |
| < 50 µM | COc1nccc(-c2c(-c3ccc(F)cc3)ncn2C2CCC2)n1 [Example 13, 1-Cyclobutyl-4-(4-fluorophenyl)-5-(2-methoxypyrimidin-4-yl)imidazole] |

Tested on: IL-1 and TNF
Assay: not given
Conditions: cited from earlier work

| SMILES | inhibition of IL-1 and TNF |
| --- | --- |
| Fc1ccc(-c2nc3n(c2-c2ccncc2)CCS3)cc1 [SK&F 86002] | inhibiting IL-1 and TNF |
| C[S+]([O-])c1ccc(-c2nc(-c3ccncc3)c(-c3ccc(F)cc3)[nH]2)cc1 (stereo not drawn) [SB 203580] | inhibiting IL-1 and TNF |

Tested on: IL-6, IL-8, GM-CSF and COX-2
Assay: not given
Conditions: cited from earlier work

| SMILES | synthesis of pro-inflammatory proteins including IL-6, IL-8, GM-CSF and COX-2 |
| --- | --- |
| Fc1ccc(-c2nc3n(c2-c2ccncc2)CCS3)cc1 [SK&F 86002] | decrease the synthesis |
| C[S+]([O-])c1ccc(-c2nc(-c3ccncc3)c(-c3ccc(F)cc3)[nH]2)cc1 (stereo not drawn) [SB 203580] | decrease the synthesis |
